We go through 31 compounds from patent publication US8710044B2, “Bicyclic azaheterocyclic carboxamides” (Merck Patent GmbH, priority 2010, dated 2014).

What is called IC50 is the concentration needed to halve the response being measured.

For this experiment, the target named is T1, P70S6K (T412E mutant, Millipore) (Homo sapiens, UniProt P23443, T412E).
T1 construct: purchased Millipore
T1 sequence (P23443 whole entry T412E): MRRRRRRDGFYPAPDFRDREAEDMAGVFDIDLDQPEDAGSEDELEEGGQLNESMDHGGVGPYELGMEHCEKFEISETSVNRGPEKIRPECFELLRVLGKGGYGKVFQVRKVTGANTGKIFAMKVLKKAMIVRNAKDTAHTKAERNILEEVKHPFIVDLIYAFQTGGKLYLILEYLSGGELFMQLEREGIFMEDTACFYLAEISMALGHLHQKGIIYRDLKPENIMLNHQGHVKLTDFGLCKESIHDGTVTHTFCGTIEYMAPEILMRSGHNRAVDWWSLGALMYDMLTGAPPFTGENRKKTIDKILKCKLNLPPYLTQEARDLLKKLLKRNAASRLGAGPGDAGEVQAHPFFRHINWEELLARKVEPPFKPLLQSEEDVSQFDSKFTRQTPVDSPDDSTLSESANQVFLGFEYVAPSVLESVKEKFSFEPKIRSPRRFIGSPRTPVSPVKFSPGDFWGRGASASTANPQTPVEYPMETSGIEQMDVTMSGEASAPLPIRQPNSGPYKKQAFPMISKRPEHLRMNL
Description: P70S6K Enzyme Assay. The note with it: 3 nM enzyme, 24 μM ATP, 1 μM FITC-AHA-[…]-OH substrate peptide, 90 min at 25° C., Caliper Lab Chip 3000. Type of experiment: biochemical. As to the method: P70S6K inhibitor compounds are diluted and plated in 96 well plates. […] The reaction is incubated for 90 min at 25° C., before the addition of 10 mM EDTA to stop the reaction. The proportion of substrate and product (phosphorylated) peptide is analysed on a Caliper Life Sciences Lab Chip 3000, using a pressure of −1.4 psi, and upstream and downstream voltages of −3000 and −700 respectively. Product peaks are resolved before substrate peaks on the resulting chromatograms.
As for `CNC[C@@H](Nc1nc(C)nc2c(C(N)=O)cccc12)c1ccc(F)cc1` [Example 16, 4-{[(1S)-1-(4-fluorophenyl)-2-(methylamino)ethyl]amino}-2-methylquinazoline-8-carboxamide], it took 2.8 nM to reach half-maximal inhibition (IC50). In turn, `CNC[C@@H](Nc1nc(C)nc2c(C(N)=O)cccc12)c1cccc(F)c1` [Example 17, 4-{[(1S)-1-(3-fluorophenyl)-2-(methylamino)ethyl]amino}-2-methylquinazoline-8-carboxamide] gave an IC50 of 139 nM. Under `CNC[C@@H](Nc1nc(C(C)C)nc2c(C(N)=O)cccc12)c1ccc(Cl)cc1` [Example 18, 4-{[(1S)-1-(4-chlorophenyl)-2-(methylamino)ethyl]amino}-2-isopropylquinazoline-8-carboxamide] stands 23 nM.

On to `CNC[C@@H](Nc1nc(C)nc2c(C(N)=O)cccc12)c1ccc(Cl)cc1` [Example 19, 4-{[(1S)-1-(4-chlorophenyl)-2-(methylamino)ethyl]amino}-2-methylquinazoline-8-carboxamide], for which the IC50 worked out at 0.83 nM. `CCc1nc(N[C@H](CNC)c2cccc(F)c2)c2cccc(C(N)=O)c2n1` [Example 20, 2-Ethyl-4-{[(1S)-1-(3-fluorophenyl)-2-(methylamino)ethyl]amino}quinazoline-8-carboxamide] yielded a 50% inhibitory concentration (IC50) of 1.97 nM.

Consider `CCc1nc(N[C@H](CNC)c2cccc(Cl)c2)c2cccc(C(N)=O)c2n1` [Example 21, 4-{[(1S)-1-(3-Chlorophenyl)-2-(methylamino)ethyl]amino}-2-ethylquinazoline-8-carboxamide], for which the IC50 worked out at 0.87 nM.

`CNC[C@@H](Nc1nc(C)nc2c(C(N)=O)cccc12)c1cccc(Cl)c1` [Example 22, 4-{[(1S)-1-(3-Chlorophenyl)-2-(methylamino)ethyl]amino}-2-methylquinazoline-8-carboxamide] yielded an IC50 of 0.98 nM. As for `CCc1nc(N[C@H](CNC)c2ccccc2)c2cccc(C(N)=O)c2n1` [Example 23, 2-Ethyl-4-{[(1S)-2-(methylamino)-1-phenylethyl]amino}quinazoline-8-carboxamide], the IC50 amounted to 11 nM. With `CCc1nc(N[C@H](CNC)c2ccc(Cl)cc2)c2cccc(C(N)=O)c2n1` [Example 24, 4-{[(1S)-1-(4-Chlorophenyl)-2-(methylamino)ethyl]amino}-2-ethylquinazoline-8-carboxamide], the IC50 came to 1.4 nM. Regarding `CNC[C@@H](Nc1nc(C)nc2c(C(N)=O)cccc12)c1ccccc1` [Example 26, 2-Methyl-4-{[(1S)-2-(methylamino)-1-phenylethyl]amino}quinazoline-8-carboxamide], the midpoint of inhibition, the IC50, lay at 6.46 nM. With `CNC[C@@H](Nc1nc(C(F)(F)F)nc2c(C(N)=O)cccc12)c1cccc(F)c1` [Example 27, 4-{[(1S)-1-(3-Fluorophenyl)-2-(methylamino)ethyl]amino}-2-(trifluoromethyl)-quinazoline-8-carboxamide], inhibition was half-maximal at 4.3 nM (IC50). Compound `CCc1nc(N[C@H](CN2CCC2)c2cccc(F)c2)c2cccc(C(N)=O)c2n1` [Example 28] came in with an IC50 of 18.5 nM. Under `Cc1nc(N[C@H](CN2CCC2)c2ccccc2)c2cccc(C(N)=O)c2n1` [Example 29] stands 5.84 nM; under `CCc1nc(N[C@H](CN2CCC2)c2ccccc2)c2cccc(C(N)=O)c2n1` [Example 30], 33.6 nM. Under `Cc1nc(N[C@H](CN2CCC2)c2ccc(Cl)cc2)c2cccc(C(N)=O)c2n1` [Example 31] stands 2.6 nM; under `CCc1nc(N[C@H](CN2CCC2)c2ccc(Cl)cc2)c2cccc(C(N)=O)c2n1` [Example 32], 5.5 nM. To `Cc1nc(N[C@H](CN2CCC2)c2ccc(F)cc2)c2cccc(C(N)=O)c2n1` [Example 33] belongs 44 nM; to `Cc1nc(N[C@H](CN2CCC2)c2cccc(F)c2)c2cccc(C(N)=O)c2n1` [Example 34], 7 nM. Consider `CCc1nc(N[C@H](CN2CCC2)c2ccc(F)cc2)c2cccc(C(N)=O)c2n1` [Example 36], for which the IC50 is 30 nM. As for `CNC[C@@H](Nc1nc(C)nc2c(C(N)=O)cccc12)c1cc(F)ccc1OC` [Example 47, 4-[(S)-1-(5-Fluoro-2-methoxy-phenyl)-2-methylamino-ethylamino]-2-methyl-quinazoline-8-carboxylic acid amide], half-maximal inhibition (IC50) was put at 12 nM. Under `CNC[C@@H](Nc1nc(C)nc2c(C(N)=O)cccc12)c1ccc(C(F)(F)F)cc1` [Example 48, 2-Methyl-4-[(S)-2-methylamino-1-(4-trifluoromethyl-phenyl)-ethylamino]-quinazoline-8-carboxylic acid amide] stands 1 nM. As for `Cc1nc(N[C@@H](Cc2ccccc2)CN(C)C)c2cccc(C(N)=O)c2n1` [Example 49, 4-((S)-1-Benzyl-2-dimethylamino-ethylamino)-2-methyl-quinazoline-8-carboxylic acid amide], the IC50 was 452 nM. As to `CNC[C@@H](Nc1nc(C)nc2c(C(N)=O)cccc12)c1ccc(F)cc1C(F)(F)F` [Example 50, 4-[(1S)-1-[4-fluoro-2-(trifluoromethyl)phenyl]-2-(methylamino)ethyl]amino-2-methylquinazoline-8-carboxamide], 260 nM corresponded to half-maximal inhibition (IC50). To `NC[C@@H](Nc1nc(C(F)(F)F)nc2c(C(N)=O)cccc12)c1ccccc1` [Example 51, 4-((S)-2-Amino-1-phenyl-ethylamino)-2-trifluoromethyl-quinazoline-8-carboxylic acid amide] belongs 8 nM; to `CNC[C@@H](Nc1nc(C)nc2c(C(N)=O)cccc12)c1ccc(OC(F)(F)F)c(Cl)c1` [Example 52], 1 nM.

`CNC[C@@H](Nc1nc(C)nc2c(C(N)=O)cccc12)c1cc(F)ccc1F` [Example 53] gave an IC50 of 3 nM. The compound `CNC[C@@H](Nc1nc(C)nc2c(C(N)=O)cccc12)c1ccc(F)cc1F` [Example 54] displayed an IC50 of 7 nM. Turning to `CNC[C@@H](Nc1nc(C)nc2c(C(N)=O)cccc12)c1c(F)cccc1F` [Example 55], the IC50 was 6 nM. Under `CNC[C@@H](Nc1nc(C)nc2c(C(N)=O)cccc12)c1cc(F)c(F)cc1F` [Example 56, (S)-2-methyl-4-((2-(methylamino)-1-(2,4,5-trifluorophenyl)ethyl)amino)quinazoline-8-carboxamide] stands 1 nM.

In turn, `CCc1nc(N[C@H](CNC)c2cccc(F)c2Cl)c2cccc(C(N)=O)c2n1` [Example 60, (S)-4-((1-(2-chloro-3-fluorophenyl)-2-(methylamino)ethyl)amino)-2-ethylquinazoline-8-carboxamide] gave an IC50 of 9 nM. To `CNC[C@@H](Nc1nc(C)nc2c(C(N)=O)cccc12)c1ccc(Cl)c(Cl)c1` [Example 61] belongs 330 nM.
